Laboratory results reported in patent publication EP4786466A1, “QUINAZOLINE DERIVATIVE, SALT THEREOF, AND PHARMACEUTICAL COMPOSITION COMPRISING SAME AS ACTIVE INGREDIENT” (Korea Research Institute of Chemical Technology, priority 2023, dated 2025).
Read-outs that look alike come from different tables or passages of the source.

Experiments:
[1] = in vitro; settings: human
Protocol: (§1) MCF7 breast cancer cell lines and MCF10A normal breast cancer cell lines were treated with serial dilutions of the compounds of the present invention ranging from 1 µM to 15.63 nM for 72 hours. Cell viability was measured by the WST-8 assay (Cyto XTM cell viability assay kit; LPS solution, Daejeon, Korea) according to the manufacturer's instructions.

[2] = target: T1, Recombinant GST-TAG-MASTL (Homo sapiens, UniProt Q96GX5); test: HTRF-based kinase assay (HTRF KinEASE assay kit); type: biochemical; settings: for activity at 1 µM: read-out: MASTL activity (%) HTRF (1 µM)
T1 construct: GST; purchased Thermo Fisher Scientific
T1 sequence (Q96GX5 1-879): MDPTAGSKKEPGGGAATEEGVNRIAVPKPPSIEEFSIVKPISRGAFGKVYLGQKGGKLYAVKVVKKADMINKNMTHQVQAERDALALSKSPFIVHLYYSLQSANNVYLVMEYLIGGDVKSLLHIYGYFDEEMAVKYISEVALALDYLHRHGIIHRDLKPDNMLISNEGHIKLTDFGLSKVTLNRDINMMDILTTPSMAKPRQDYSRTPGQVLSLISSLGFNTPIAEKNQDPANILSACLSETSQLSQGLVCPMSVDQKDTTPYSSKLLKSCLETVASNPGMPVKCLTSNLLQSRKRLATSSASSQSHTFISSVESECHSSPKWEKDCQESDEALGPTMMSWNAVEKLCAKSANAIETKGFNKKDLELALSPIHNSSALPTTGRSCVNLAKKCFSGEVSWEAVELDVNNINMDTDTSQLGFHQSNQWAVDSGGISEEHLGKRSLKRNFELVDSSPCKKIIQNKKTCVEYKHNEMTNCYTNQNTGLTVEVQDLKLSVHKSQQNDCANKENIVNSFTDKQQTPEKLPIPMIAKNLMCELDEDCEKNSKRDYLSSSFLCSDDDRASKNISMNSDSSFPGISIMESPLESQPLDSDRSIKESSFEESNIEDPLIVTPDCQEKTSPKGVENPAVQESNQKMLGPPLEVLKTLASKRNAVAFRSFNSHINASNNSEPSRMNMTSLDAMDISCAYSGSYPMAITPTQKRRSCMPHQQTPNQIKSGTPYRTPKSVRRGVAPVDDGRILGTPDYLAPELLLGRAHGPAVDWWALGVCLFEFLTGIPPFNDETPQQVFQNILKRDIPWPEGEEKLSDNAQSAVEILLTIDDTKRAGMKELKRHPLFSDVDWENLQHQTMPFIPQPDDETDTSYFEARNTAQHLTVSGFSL
Excerpt: Recombinant GST-TAG-MASTL (Thermo Fisher Scientific, MA, USA) was used for HTRF-based kinase assays. The HTRF KinEASE assay kit (CisBio, MA, USA) was used according to the manufacturer's instructions.

[3] = test system: MCF7 breast cancer cell lines; test: Cell viability analysis, WST-8 assay, MCF7; settings: for viability at 1 µM: read-out: Cell viability (%) WST-8, MCF7 (1 µM), compound 1 µM, 72 hours; for viability at 1.1 µM: read-out: Cell viability (%) WST-8, MCF7, footnote d: concentration 1.1 µM, 72 hours
Protocol: as §1

[4] = test system: pENSA; test: pENSA level by immunofluorescence (described method: in vitro kinase analysis with GST-tag-MASTL and His-tag-ENSA); type: cell-based; settings: footnote d: concentration 1.1 µM
Protocol: Two recombinant GST-tag-MASTL (Thermo Fisher Scientific) and His-tag-ENSA (Sino Biological Inc., Beijing, China) were used for in vitro kinase analysis. In vitro kinase analysis was performed as described in the literature [Front Oncol 2020, 10, 571601, 39-202021-10-20doi:10.3389/fonc.2020.571601.].
Phosphorylated ENSA (pENSA), which is activated by phosphorylation by MASTL, can be utilized as a biomarker as it is expected that its activity will be inhibited along with the inhibition of MASTL. In the cell viability assay, MCF7 refers to a breast cancer cell line, and MCF10A refers to a normal breast […] cell line.

[5] = read-out: MASTL activity (%) HTRF

Row | SMILES | viability at 1 µM [1] | activity at 1 µM ([2]; compound 1 µM) | viability at 1 µM ([3]; Homo sapiens, MCF7, 72 h) | viability at 1 µM ([1]; mcf10a cells) | further results
1 | c1ccc2c(Nc3cc(C4CC4)n[nH]3)nc(Nc3ccc4nc[nH]c4c3)nc2c1 [compound 4df, N^2-(1H-benzo[d]imidazol-5-yl)-N^4-(5-cyclopropyl-1H-pyrazol-3-yl)quinazoline-2,4-diamine] | 4.8% | 31.8% | 78.4% | – | –
2 | CCNC(=O)c1ccc(Nc2nc(Nc3cc(C4CC4)[nH]n3)c3ccccc3n2)cc1 [4af, 4-((4-((5-cyclopropyl-1G-pyrazol-3-yl)amino)quinazolin-2-yl)amino)-M-ethylbenzamide] | – | 49.6% | 66.6% | 66.5% | –
3 | O=C(Nc1ccccc1)N1CC2CC1CN2c1nc(Nc2cn[nH]c2)c2ccccc2n1 (centres unmarked) [compound 28b, 5-(4-((1G-pyrazol-4-yl)amino)quinazolin-2-yl)-M-phenyl-2,5-diazabicyclo[2.2.1]heptane-2-carboxamide] | – | – | 91.2% | 37% | –
4 | N#CCc1ccc(Nc2nc(Nc3nnc(C4CC4)s3)c3ccccc3n2)cc1 [compound 3l, 2-(4-((4-((5-cyclopropyl-1,3,4-thiadiazol-2-yl)amino)quinazolin-2-yl)amino)phenyl)acetonitrile] | 104% | 114% | 80.5% | – | –
5 | O=C1CSC(Nc2nc(Nc3ccccc3)nc3ccccc23)=N1 [compound 26b, 2-((2-(phenylamino)quinazolin-4-yl)amino)thiazol-4(5H)-one] | 98.8% | 112% | 95.8% | – | –
6 | N#Cc1ccc(Nc2nc(Nc3cc(C4CC4)[nH]n3)c3ccccc3n2)cc1 [compound 4d, 4-((4-((5-cyclopropyl-1G-pyrazol-3-yl)amino)quinazolin-2-yl)amino)benzonitrile] | – | – | – | – | viability at 1.25 µM ([1]; mcf10a cells): 3.2%; IC50 [2]: 625 nM; activity at 1.25 µM [2, 5]: 32.6%; viability at 1.25 µM ([3]; Homo sapiens, MCF7, 72 h, read-out: Cell viability (%) WST-8, MCF7, footnote a: concentration 1.25 µM, 72 hours): 5.6%; selectivity for breast cancer cells over normal cells in the cell viability assay ([3]; MCF7 versus MCF10A): selectively inhibit only breast cancer cells
7 | N#Cc1ccccc1S(=O)(=O)N1CC2CC1CN2c1nc(Nc2cc(C3CC3)[nH]n2)c2ccccc2n1 (centres unmarked) [compound 15v, 2-((5-(4-((5-cyclopropyl-1G-pyrazol-3-yl)amino)quinazolin-2-yl)-2,5-diazabicyclo[2.2.1]heptan-2-yl)sulfonyl)benzonitrile] | – | – | 80.5% | 81.8% | IC50 [2]: 52.7 nM; activity at 1 µM [2]: 29.5%
8 | CNC(=O)c1ccc(Nc2nc(Nc3cc(C4CC4)[nH]n3)c3ccccc3n2)cc1 [4ae, 4-((4-((5-cyclopropyl-1G-pyrazol-3-yl)amino)quinazolin-2-yl)amino)-M-methylbenzamide] | – | 41.7% | 72.8% | 70.5% | –
9 | N#CCc1ccc(C2=CCN(c3nc(Nc4cc(C5CC5)[nH]n4)c4ccccc4n3)CC2)cc1F [compound 6n, 2-(4-(1-(4-((5-cyclopropyl-1G-pyrazol-3-yl)amino)quinazolin-2-yl)-1,2,3,6-tetrahydropyridin-4-yl)-2-fluorophenyl)acetonitrile] | – | – | 110% | 116% | IC50 [2]: 121 nM; activity at 1 µM [2]: 30.8%
10 | CC(C)NC(=O)N1CC2CC1CN2c1nc(Nc2cc(C3CC3)[nH]n2)c2ccccc2n1 (centres unmarked) [compound 15b, 5-(4-((5-cyclopropyl-1G-pyrazol-3-yl)amino)quinazolin-2-yl)-M-isopropyl-2,5-diazabicyclo[2.2.1]heptane-2-carboxamide] | – | – | 75.3% | 77.2% | –
11 | Cc1cc(Nc2nc(N3CC4CC3CN4C(=O)NC(C)C)nc3ccccc23)n[nH]1 (centres unmarked) [compound 27a, M-isopropyl-5-(4-((5-methyl-1G-pyrazol-3-yl)amino)quinazolin-2-yl)-2,5-diazabicyclo[2.2.1]heptane-2-carboxamide] | – | – | 95.6% | 90.7% | –
12 | Cc1cc(Nc2nc(N3CC4CC3CN4C(=O)Nc3ccccc3)nc3ccccc23)n[nH]1 (centres unmarked) [compound 27b, 5-(4-((5-methyl-1G-pyrazol-3-yl)amino)quinazolin-2-yl)-M-phenyl-2,5-diazabicyclo[2.2.1]heptane-2-carboxamide] | – | – | 83.2% | 36.1% | –
13 | c1ccc2c(Nc3cc(C4CC4)[nH]n3)nc(Nc3cnc4[nH]ccc4c3)nc2c1 [compound 4dg, N^4-(5-cyclopropyl-1H-pyrazol-3-yl)-N^2-(1H-pyrrolo[2,3-b]pyridin-5-yl)quinazoline-2,4-diamine] | 12% | 37.9% | 49% | – | –
14 | N#Cc1ccc(CNc2nc(Nc3cc(C4CC4)[nH]n3)c3ccccc3n2)cc1 [compound 4ch, 4-(((4-((5-cyclopropyl-1G-pyrazol-3-yl)amino)quinazolin-2-yl)amino)methyl)benzonitrile] | – | – | 73.6% | 32% | activity at 1 µM [2]: 43%
15 | CC(C)(C)OC(=O)N1CC2C(C1)C2Nc1nc(Nc2cc(C3CC3)[nH]n2)c2ccccc2n1 (centres unmarked) [compound 4cg, tert-butyl 6-((4-((5-cyclopropyl-1H-pyrazol-3-yl)amino)quinazolin-2-yl)amino)-3-azabicyclo[3.1.0]hexane-3-carboxylate] | 117% | – | – | – | MASTL activity (%) HTRF (1 µM) ([2]; compound 1 µM, 1 µM): 76.4%; Cell viability (%) WST-8, MCF7 (1 µM) ([3]; compound 1 µM, 72 hours, 1 µM): 73.6%
16 | N#CCc1ccc(Nc2nc(NC3=NC(=O)CS3)c3ccccc3n2)cc1 [compound 3j, 2-(4-((4-((4-oxo-4,5-dihydrothiazol-2-yl)amino)quinazolin-2-yl)amino)phenyl)acetonitrile] | 84.2% | 92.5% | 108% | – | –
17 | N#Cc1cc(Cl)ccc1C1=CCN(c2nc(Nc3cc(C4CC4)[nH]n3)c3ccccc3n2)CC1 [compound 6o, 5-chloro-2-(1-(4-((5-cyclopropyl-1G-pyrazol-3-yl)amino)quinazolin-2-yl)-1,2,3,6-tetrahydropyridin-4-yl)benzonitrile] | – | – | 48.4% | 24.9% | activity at 1 µM [2]: 61.2%
18 | c1ccc2c(Nc3cc(C4CC4)[nH]n3)nc(Nc3cnc4cccnn34)nc2c1 [compound 4dh, N^4-(5-cyclopropyl-1H-pyrazol-3-yl)-N^2-(imidazo[1,2-b]pyridazin-3-yl)quinazoline-2,4-diamine] | 111% | 88.7% | 116% | – | –
19 | CC(C)S(=O)(=O)c1ccccc1Nc1nc(Nc2ccc(CC#N)cc2)nc2ccccc12 [compound 3g, 2-(4-((4-((2-(isopropylsulfonyl)phenyl)amino)quinazolin-2-yl)amino)phenyl)acetonitrile] | – | – | – | – | viability at 1.1 µM [1]: 99.7%; activity at 3.3 µM ([2]; footnote c: concentration 3.3 µM): 127%; viability at 1.1 µM ([3]; Homo sapiens, MCF7, 72 h): 109%
20 | N#CCc1ccc(Nc2nc(Nc3ccc(Cl)nn3)c3ccccc3n2)cc1 [compound 3i, 2-(4-((4-((6-chloropyridazin-3-yl)amino)quinazolin-2-yl)amino)phenyl)acetonitrile] | 51.8% | 126% | 95.6% | – | –
21 | CC(C)NC(=O)N1CC2CC1CN2c1nc(Nc2cn[nH]c2)c2ccccc2n1 (centres unmarked) [compound 28a, 5-(4-((1G-pyrazol-4-yl)amino)quinazolin-2-yl)-M-isopropyl-2,5-diazabicyclo[2.2.1]heptane-2-carboxamide] | – | – | 99% | – | viability at 1.25 µM ([1]; mcf10a cells): 93.9%
22 | O=S(=O)(c1ccc(-c2ccccc2)cc1)N1CC2CC1CN2c1nc(Nc2cc(C3CC3)[nH]n2)c2ccccc2n1 (centres unmarked) [compound 15aa, 2-(5-([1,1'-biphenyl]-4-ylsulfonyl)-2,5-diazabicyclo[2.2.1]heptan-2-yl)-M-(5-cyclopropyl-1G-pyrazol-3-yl)quinazolin-4-amine] | – | – | – | – | activity at 1.1 µM [2, 5]: 55.5%; pENSA (%) Immunofluor ecense [4]: 61.2^d %; viability at 1.1 µM ([3]; Homo sapiens, MCF7, 72 h): 87.5%
